Source: ChEMBL document CHEMBL4414672, “Synthesis of certain benzothieno[3,2-d]pyrimidine derivatives as a selective SIRT2 inhibitors” (Eur J Med Chem, 2020)
In brackets after ≈: the same amount, converted by molar mass.

Columns and labels:
[1] = system: SF-539; assay: Growth inhibition of human SF539 cells at 10^-5 M incubated for 48 hrs by sulforhodamine B assay; assay type: functional; details: SF-539, 48 h, read-out: GI
[2] = system: UACC-62; assay: Growth inhibition of human UACC62 cells at 10^-5 M incubated for 48 hrs by sulforhodamine B assay; assay type: functional; details: UACC-62, 48 h, read-out: GI
[3] = biological target: NAD-dependent protein deacetylase sirtuin-1 (Homo sapiens, UniProt Q96EB6); assay: Inhibition of SIRT1 (unknown origin) using fluorogenic substrate assessed as deacetylase activity incubated for 45 mins by fluorescence assay
Chain of NAD-dependent protein deacetylase sirtuin-1 (Q96EB6 whole entry): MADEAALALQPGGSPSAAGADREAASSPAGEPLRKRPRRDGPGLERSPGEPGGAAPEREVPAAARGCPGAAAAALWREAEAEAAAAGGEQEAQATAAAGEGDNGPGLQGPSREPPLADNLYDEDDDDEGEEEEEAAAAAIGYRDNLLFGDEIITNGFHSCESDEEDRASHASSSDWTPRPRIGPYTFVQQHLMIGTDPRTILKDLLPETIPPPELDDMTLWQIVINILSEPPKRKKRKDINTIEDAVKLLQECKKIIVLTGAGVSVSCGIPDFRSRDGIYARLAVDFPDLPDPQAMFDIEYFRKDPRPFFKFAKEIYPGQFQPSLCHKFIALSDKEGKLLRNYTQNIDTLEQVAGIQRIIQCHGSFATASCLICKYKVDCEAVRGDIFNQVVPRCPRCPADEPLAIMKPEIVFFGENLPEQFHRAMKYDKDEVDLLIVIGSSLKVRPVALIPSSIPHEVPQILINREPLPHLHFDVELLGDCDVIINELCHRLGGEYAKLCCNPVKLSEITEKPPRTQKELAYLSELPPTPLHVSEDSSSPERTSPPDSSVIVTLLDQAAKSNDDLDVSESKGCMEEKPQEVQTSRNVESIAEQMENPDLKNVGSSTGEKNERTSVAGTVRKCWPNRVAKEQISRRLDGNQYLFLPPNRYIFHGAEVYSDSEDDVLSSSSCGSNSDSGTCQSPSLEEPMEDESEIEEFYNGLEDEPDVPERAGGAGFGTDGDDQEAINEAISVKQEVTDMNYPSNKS

[4] = system: RXF 393; assay: Growth inhibition of human RXF393 cells at 10^-5 M incubated for 48 hrs by sulforhodamine B assay; assay type: functional; details: RXF 393, 48 h, read-out: GI
[5] = system: MCF7; assay: Cytotoxicity against human MCF7 cells assessed as reduction in cell viability after 24 hrs by MTT assay; assay type: functional, cell-based; details: MCF7, 24 h
[6] = system: A498; assay: Growth inhibition of human A498 cells at 10^-5 M incubated for 48 hrs by sulforhodamine B assay; assay type: functional; details: A498, 48 h, read-out: GI
[7] = biological target: T1, NAD-dependent protein deacetylase sirtuin-2 (Homo sapiens, UniProt Q8IXJ6); assay: Inhibition of SIRT2 (unknown origin) using fluorogenic substrate assessed as deacetylase activity incubated for 45 mins by fluorescence assay
T1 sequence (Q8IXJ6 whole entry): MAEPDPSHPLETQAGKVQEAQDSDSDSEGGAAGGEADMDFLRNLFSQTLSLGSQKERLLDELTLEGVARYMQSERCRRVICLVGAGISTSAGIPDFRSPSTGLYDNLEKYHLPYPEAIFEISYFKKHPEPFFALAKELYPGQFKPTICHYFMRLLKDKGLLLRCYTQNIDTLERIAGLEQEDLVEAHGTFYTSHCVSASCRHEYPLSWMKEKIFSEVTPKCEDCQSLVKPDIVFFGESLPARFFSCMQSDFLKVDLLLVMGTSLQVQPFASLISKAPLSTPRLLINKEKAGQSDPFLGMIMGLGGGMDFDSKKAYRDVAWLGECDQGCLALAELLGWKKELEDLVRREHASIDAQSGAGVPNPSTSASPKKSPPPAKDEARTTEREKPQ

[8] = system: SK-OV-3; assay: Growth inhibition of human SKOV3 cells at 10^-5 M incubated for 48 hrs by sulforhodamine B assay; assay type: functional; details: SK-OV-3, 48 h, read-out: GI
[9] = system: NCI-H23; assay: Growth inhibition of human NCI-H23 cells at 10^-5 M incubated for 48 hrs by sulforhodamine B assay; assay type: functional; details: NCI-H23, 48 h, read-out: GI
[10] = system: PC-3; assay: Growth inhibition of human PC3 cells at 10^-5 M incubated for 48 hrs by sulforhodamine B assay; assay type: functional; details: PC-3, 48 h, read-out: GI
[11] = system: SR; assay: Growth inhibition of human SR cells at 10^-5 M incubated for 48 hrs by sulforhodamine B assay; assay type: functional; details: read-out: GI
[12] = system: SK-MEL-2; assay: Growth inhibition of human SK-MEL-2 cells at 10^-5 M incubated for 48 hrs by sulforhodamine B assay; assay type: functional; details: SK-MEL-2, 48 h, read-out: GI
[13] = system: NCI-H322M; assay: Growth inhibition of human NCI-H322M cells at 10^-5 M incubated for 48 hrs by sulforhodamine B assay; assay type: functional; details: read-out: GI
[14] = system: SNB-19; assay: Growth inhibition of human SNB19 cells at 10^-5 M incubated for 48 hrs by sulforhodamine B assay; assay type: functional; details: SNB-19, 48 h, read-out: GI
[15] = system: K562; assay: Growth inhibition of human K562 cells at 10^-5 M incubated for 48 hrs by sulforhodamine B assay; assay type: functional; details: K562, 48 h, read-out: GI
[16] = system: M14; assay: Growth inhibition of human M14 cells at 10^-5 M incubated for 48 hrs by sulforhodamine B assay; assay type: functional; details: M14, 48 h, read-out: GI
[17] = system: OVCAR-3; assay: Growth inhibition of human OVCAR3 cells at 10^-5 M incubated for 48 hrs by sulforhodamine B assay; assay type: functional; details: OVCAR-3, 48 h, read-out: GI
[18] = system: UO-31; assay: Cytotoxicity against human UO31 cells assessed as reduction in cell viability after 24 hrs by MTT assay; assay type: functional, cell-based; details: UO-31, 24 h
[19] = system: MDA-MB-231; assay: Growth inhibition of human MDA-MB-231 cells at 10^-5 M incubated for 48 hrs by sulforhodamine B assay; assay type: functional; details: MDA-MB-231, 48 h, read-out: GI
[20] = system: SN12C; assay: Growth inhibition of human SN12C cells at 10^-5 M incubated for 48 hrs by sulforhodamine B assay; assay type: functional; details: read-out: GI
[21] = biological target: NAD-dependent protein deacetylase sirtuin-3, mitochondrial (Homo sapiens, UniProt Q9NTG7); assay: Inhibition of SIRT3 (unknown origin) using fluorogenic substrate assessed as deacetylase activity incubated for 45 mins by fluorescence assay
Chain of NAD-dependent protein deacetylase sirtuin-3, mitochondrial (Q9NTG7 whole entry): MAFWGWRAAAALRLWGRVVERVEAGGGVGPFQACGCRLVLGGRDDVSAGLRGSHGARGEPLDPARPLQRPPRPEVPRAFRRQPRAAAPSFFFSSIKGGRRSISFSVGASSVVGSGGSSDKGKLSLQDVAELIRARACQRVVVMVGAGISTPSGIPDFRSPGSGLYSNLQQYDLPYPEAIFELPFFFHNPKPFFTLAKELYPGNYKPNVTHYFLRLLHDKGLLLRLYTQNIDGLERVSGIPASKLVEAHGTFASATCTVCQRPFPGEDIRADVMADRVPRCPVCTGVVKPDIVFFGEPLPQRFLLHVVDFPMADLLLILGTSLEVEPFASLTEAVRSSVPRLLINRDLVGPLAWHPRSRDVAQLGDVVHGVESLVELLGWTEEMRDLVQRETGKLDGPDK

[22] = system: Malme-3M; assay: Growth inhibition of human MALME-3M cells at 10^-5 M incubated for 48 hrs by sulforhodamine B assay; assay type: functional; details: read-out: GI
[23] = system: OVCAR-8; assay: Growth inhibition of human OVCAR8 cells at 10^-5 M incubated for 48 hrs by sulforhodamine B assay; assay type: functional; details: OVCAR-8, 48 h, read-out: GI
[24] = system: T47D; assay: Growth inhibition of human T47D cells at 10^-5 M incubated for 48 hrs by sulforhodamine B assay; assay type: functional; details: read-out: GI
[25] = system: HOP-92; assay: Growth inhibition of human HOP92 cells at 10^-5 M incubated for 48 hrs by sulforhodamine B assay; assay type: functional; details: HOP-92, 48 h, read-out: GI
[26] = system: TK-10; assay: Growth inhibition of human TK10 cells at 10^-5 M incubated for 48 hrs by sulforhodamine B assay; assay type: functional; details: TK-10, 48 h, read-out: GI
[27] = biological target: T1, NAD-dependent protein deacetylase sirtuin-2; assay: (§1) Inhibition of SIRT2 (unknown origin) assessed as increase in alpha-tubulin acetylation after 2 hrs by alpha-tubulin acetyl-K40 assay
[28] = biological target: NAD-dependent protein deacetylase sirtuin-2 (Homo sapiens) (UniProt Q8IXJ6); assay: as §1

Row | SMILES | inhibition of growth at 10 µM [1] [%] | inhibition of growth at 10 µM [2] [%] | inhibition of growth at 10 µM [4] [%] | IC50 [5] [µg/mL] | inhibition of growth at 10 µM [6] [%] | IC50 [7] [µM] | inhibition of growth at 10 µM [8] [%] | inhibition of growth at 10 µM [9] [%] | inhibition of growth at 10 µM [10] [%] | inhibition of growth at 10 µM [11] [%] | inhibition of growth at 10 µM [12] [%] | inhibition of growth at 10 µM [13] [%] | inhibition of growth at 10 µM [14] [%] | inhibition of growth at 10 µM [15] [%] | inhibition of growth at 10 µM [16] [%] | inhibition of growth at 10 µM [17] [%] | IC50 [18] [µg/mL] | inhibition of growth at 10 µM [19] [%] | inhibition of growth at 10 µM [20] [%] | inhibition of growth at 10 µM [22] [%] | also measured
1 | O=C1CSC2=Nc3c(sc4ccc(Cl)cc34)C(c3ccc4ccccc4c3)N12 (configuration not stated) | -2.59 | 15.7 | -5.09 | 2.34 (≈ 5.56 µM) | 20 | 4.99 | 10.3 | 14.1 | 7.88 | 15.4 | -6.76 | 6.48 | -1.93 | 7.65 | 6.91 | -0.24 | 12.4 (≈ 29.5 µM) | 19.7 | 9.96 | 4.51 | IC50 [3]: 4.3 µM; IC50 [21]: 48.7 µM; inhibition of growth at 10 µM [23]: 3.28%; inhibition of growth at 10 µM [24]: 15.7%; inhibition of growth at 10 µM [25]: 6.48%; inhibition of growth at 10 µM [26]: -19.4%; IC50 [27]: 76.1 µM; inhibition [28]: Dose-dependent effect
2 | Cc1cc(C)n(C2=Nc3c(sc4ccc(Cl)cc34)C(c3cccc([N+](=O)[O-])c3)N2)n1 (configuration not stated) | -0.76 | 9.64 | -9.71 | 1.67 (≈ 3.81 µM) | 1.15 | 19.3 | 11.4 | 23 | 18.6 | -4.84 | -5.1 | 0.71 | 3.18 | 4.14 | -4.17 | -2.22 | 9.62 (≈ 22 µM) | 18.8 | 5.84 | -2.21 | inhibition of growth at 10 µM [23]: 0.5%; inhibition of growth at 10 µM [24]: 13.2%; inhibition of growth at 10 µM [25]: -4.25%; inhibition of growth at 10 µM [26]: -12.7%
